Patent publication US20050069544A1, “Pharmaceutical composition and a method of treatment” (priority 1998, published 2005)
“Also recorded” adds a separate entry of the source.

Experiments:
[1] = system: CD3+ CD4+ T-helper cells of AIHA patients; assay: Flow cytometry of CD3, CD4 and intracellular cytokines in PBMC from AIHA patients; format: cell-based, human; details: AIHA patient; for CD3+ CD4+ population of T-helper cells: FIGS. 23A to 23D; for CD4+ T-helper cells expressing intracellular IFN-γ: FIGS. 23E to 23H
Description: (§1) The secretion of cytokines identified in Example 1.3 by T-helper cells is confirmed by flow cytometery analysis. Simultaneous measurement of surface molecules CD3 and CD4 and intracellular cytokines IFN-γ or IL-10 was carried out using three colour flow cytometry analysis in PBMC, isolated from RhD-alloimmunised donors, cultured with either no antigen or RhD peptide for five days after stimulation. All analysis was carried out using Expo v2 analysis software (applied Cytometry Systems). The CD3+ T-cells were gated open and the numbers of IFN-γ+ and CD4+ cells were assessed. In all donors tested there was a significant increase in the proportion of CD4+ IFN-γ+CD3+ T-cells to at least one of the RhD peptides tested. In the representative example shown in FIGS. 12A to 12L it can be seen that the proportion of CD4+ IFN-γ+cells was 4.2% in unstimulated cultures (FIG. 12E). […] The IL-10 and CD4+ expression was also assessed on CD3+ gated population of T-cells. In PBMC cultures isolated from the alloimmune donor shown, there was an increase in the proportion of CD4+ IL-10+T-cells from 2.4% in unstimulated PBMC cultures (FIG. 12I) to 6.5% in culture stimulated with RhD peptide 13 (FIG. 12J) to 6.2% in cultures stimulated with RhD peptide 17 (FIG. 12K) and 5.9% with RhD peptide 28 (FIG. 12L).
The secretion of cytokines identified in Example 2.3 by T-cells is confirmed utilising the experiments mentioned in Example 1.4, which were repeated using PBMC isolated from patients with AIHA.

[2] = system: PBMC from RhD alloimmunised donors; assay: Cell proliferation assay (3H-thymidine) of PBMC from RhD alloimmunised donors stimulated with RhD peptides; format: cell-based, human; details: peptide 20 μg/ml, 5 days
Description: Five complete panels of 68 15-mer peptides, with 5 or 10 amino acid overlaps, were synthesized (Multiple Peptide Service, Cambridge Research Biochemicals, Cheshire, UK and Dept. Of Biochemistry, University of Bristol, UK), corresponding to the sequences of the 30 kD Rh proteins associated with expression of the RhD or RhcE/ce/Ce/CE blood group antigens respectively (Tables 1 to 5). An additional three peptide sequences is added to the panel of RhD peptides to account for the Ile to Met substitution described earlier (numbered from 69 to 71). The amino acid sequences for each of these proteins were deduced from cDNA analyses (FIG. 1). In order to ensure purity, each panel was synthesized by fluorenylmethoxycarbonyl chemistry on resin using a base-labile linker, rather than by conventional pin technology, and randomly selected peptides were screened for purity by HPLC and amino acid analysis.
Peripheral blood mononuclear cells (PBMC) from donors or patients were separated from fresh blood samples using Ficoll-Hypaque. The donors and patients had become alloimmunised with RhD-positive blood either through pregnancy, a blood transfusion or through immunization with the relevant blood.
PBMC were cultured in 100 μl volumes in microtitre plates at a concentration of 1.25×10^6 cells/ml in an Alpha Modification of Eagle's Medium (ICN Flow, Bucks UK) supplemented with 5% autologous serum, 4 mM L-Glutamine (Gibco, Paisley, UK), 100 U/ml sodium benzylpenicillin G (Sigma), 100 μg/ml streptomycin sulphate (Sigma), 5×10^−5M 2-mercaptoethanol (Sigma) and 20 mM HEPES pH7,2 (Sigma). All plates were incubated at 37° C. in a humidified atmosphere of 5% CO2/95% air. The cell proliferation in cultures was estimated from the incorporation of ^3H-Thymidine in triplicate wells 5 days after stimulation with antigen as described previously. Proliferation results are presented either as the mean CPM+/−SD of the triplicate samples, or as a stimulation index (SI), expressing the ratio of mean CPM in stimulated versus unstimulated control cultures. An S1>3 with CPM>1000 is interpreted as representing a positive response.

[3] = system: CD3+ CD4+ T-cells of RhD-alloimmunised donors; assay: Three colour flow cytometry of CD3, CD4 and intracellular IFN-γ or IL-10 in PBMC from RhD-alloimmunised donors; format: cell-based, human; details: CD3+ gated, representative alloimmune donor, 5 days; for proportion of CD4+ IL-10+ T-cells: unstimulated cultures 2.4%; for proportion of CD4+ IFN-γ+ T-cells: unstimulated cultures 4.2%
Description: as §1

[4] = system: HLA-DR15 transgenic mice; assay: Tolerisation in vivo to RhD protein in HLA-DR15 transgenic mice
Description: HLA-DR15 transgenic mice were immunised twice with 2 mg/ml purified RhD protein. The first subcutaneous injection was followed 14 days later by an intraperitoneal injection. Mice were sacrificed 14 days after the final injection. The spleen was removed and blood collected by cardiac puncture.
Fourteen days before RhD immunisation (as above) 25 μl of 2 mg/ml soluble RhD peptides were administered by the intranasal route.
Fourteen days before RhD immunisation (as above) 25 μl of 2 mg/ml soluble RhD peptides were administered by the subcutaneous route.
Splenocytes were homogenised and a single cell suspension was isolated over 40 μm mesh filters (Becton Dickinson) and resuspended to 1.25×10^6 cells/ml in the Alpha Modification of Eagle's Medium (ICN Flow, Bucks UK) supplemented with 5% autologous serum, 4 mM L-Glutamine (Gibco, Paisley, UK), 100 U/ml sodium benzylpenicillin G (Sigma), 100 μg/ml streptomycin sulphate (Sigma), 5×10^−5 2-mercaptoethanol (Sigma) and 20 mM HEPES pH7.2 (Sigma). All plates were incubated at 37° C. in a humidified atmosphere of 5% CO2/95% air. The cell proliferation in cultures was estimated from the incorporation of ^3H-thymidine (Amersham) in triplicate wells 5 days after stimulation with antigen. Proliferation results are presented either as the mean CPM±SD of the triplicate samples, or as a stimulation index (SI) expressing the ratio of mean CPM in stimulated versus unstimulated control cultures. An SI>3 with CPM>500 is interpreted as representing a positive response.
Round bottomed microtitre plates (Nunc, Roskilde, Denmark) were blocked in phosphate buffered saline pH 7.4 (PBS) containing 0.2% bovine serum albumin (BSA), before addition of 50 μl 2% v/v washed human D-positive RBC. Test sera were incubated at 50 μl per well with triplicate RBC samples for 1 hour at 37° C. and washed three times in PBS-BSA before fixing for 30 minutes in 0.15% glutaraldehyde (Sigma, Dorset, UK) to prevent lysis of the cells in the alkaline conditions required later in the test. The fixed RBC were transferred to fresh, pre-blocked, 96-well plates and washed before incubation with 50 μl per well 1 μg/ml goat anti-mouse IgG γ-chain specific antibody (Sigma) or goat anti-mouse IgM μ-chain specific antibody (Sigma) for 1 hour at 37° C. After washing, the plates were incubated with 50 μl per well 1 μg/ml rabbit anti-goat IgG alkaline phosphatase (Sigma) for 1 hour at 37° C., washed, and 100 μl of phosphatase substrate solution was then incubated in each well for 1 hour at 37° C. After pelleting of the RBC by centrifugation, 50 μl of each supernatant was transferred into the wells of fresh, flat-bottomed microtitre plates (Nunc) and the absorbance measured at 405 nm, with 492 nm as a reference, using a multiscan plate reader (Labsystems, Basingstoke, UK). Each result is expressed as the mean of triplicate wells. Inter-assay variation was controlled for by including previously tested RBC samples on each plate.
It is known from other animal models (Elson C J & Barker R N. Helper T-cells in antibody mediated, organ specific autoimmunity. Curr Opin Immunol, 2000; 12:664-669) that mucosal administration of immunodominant peptides which induce an immune response when given with adjuvant by the parenteral route will inhibit responsiveness, and induce antigen specific tolerance. To test the effectiveness of peptides containing immunodominant allo-RhD helper epitopes in preventing antibody response to the RhD protein, HLA-DR15 transgenic mice were used for the in vivo testing of these peptides as most alloimmunised donors responding to RhD bear this MHC class II allele.

[5] = system: PBMC from RhD-alloimmunised donors; assay: celELISA of cytokine production (IL-10, TGF-β1) by PBMC from RhD alloimmunised donors; format: cell-based, human
Description: Cultured T-cells are stimulated with each of the epitopes given in Table 1 and after 5 days the responding cells were transferred to flat-bottomed microtitre plates (96-well Nunc-Immuno Maxisorp) coated with […] per well of monoclonal anti-cytokine capture antibody diluted in 0.05M alkaline carbonate coating buffer pH 9.6. Unbound capture antibody was removed by two washes with HBSS and non-specific binding potential blocked by incubation with 200 μl per well of phosphate buffered saline, pH 7.4 (PBS containing 3% BSA).
Five days after stimulation, lymphocyte cultures were mixed to resuspend the cells and duplicate 100 μl aliquots were transferred into wells coated with the respective capture antibody specific for IFN-γ, IL-10 or TGF-β. The plates coated with capture antibodies and layered by lymphocytes were then incubated for a further 24 hours at 37° C. in a humidified atmosphere of 5% CO2 and 95% air. After this incubation the PBMC were removed by four washes with 0.2% Tween/PBS. One hundred microlitre aliquots of the appropriate biotinylated monoclonal detection antibody in 0.2% BSA/PBS were then added to the wells and incubated at room temperature for 45 minutes.
After six washes with 0.5% Tween/PBS, 100 μl of 1:100,000 ExtrAvidin-alkaline phosphatase conjugate (Sigma) was then added to each of the wells and incubated at room temperature for 30 minutes. The ExtrAvidin conjugate was removed by eight washes with 0.2% Tween/PBS, and the plates developed using 100 μl per well of p-nitrophenyl phosphate (Sigma) 1.0 mg/ml in 0.05M carbonate alkaline buffer pH9.6. The absorbance at 405 nm was then measured using a Multiscan plate reader (Labsystems Basingstoke UK).
Cytokine secretion was measured by interpolation from a standard curve generated by incubating duplicate wells with doubling dilutions of recombinant human IFN-γ or IL-10 or TGF-β (Pharmingen). The standard curves were modelled by a smoothed cubic spline function applied to the absorbance reading and the cytokine concentrations after a quasilogarithmic transformation, where: quasiloge(z)=loge[z+{square root}[z^2+1]).
Using celELISA technique, the 68 RhD peptide panel was screened for the ability to induce IL-10 and TGF-β production for PBMC from a total of 19 samples from 12 different alloimmune donors. PMBC from 10 out of the 12 RhD-alloimmunised donors could produce IL-10 to at least one of the RhD peptides on at least one occasion, with a total of 194 significant IL-10 responses to the RhD peptides between all the donors. The RhD peptides that induced significant TGF-β or IL-10 and proliferative responses from PBMC in all the samples screened are summarised in FIGS. 10 and 11.

[6] = peptide intranasal 14 days before RhD immunisation
[7] = nasal administration of peptide prior to RhD immunisation
[8] = peptide parenteral (subcutaneous) before RhD immunisation

GALFLWMFWPSFNSA (Residue 212-226 RhD; listed as Homo sapiens) [compound 35]
CD3+ CD4+ population of T-helper cells [1]: expansion of a CD3+ CD4+population of T-helper cells
CD4+ T-helper cells expressing intracellular IFN-γ [1]: expansion of CD4+ T-helper cells that express intracellular IFN-γ

AYFGLSVAWCLPKPL (Residue 177-191 RhD; listed as Homo sapiens) [peptide 28]
proliferative T-cell response to RhD peptides [2]: most commonly targeted
proportion of CD4+ IL-10+ T-cells [3]: 5.9%
proportion of CD4+ IFN-γ+ T-cells [3]: 10.2%
RhD-specific proliferation by splenocytes after prior tolerisation [4, 6]: reduction in the RhD-specific proliferation

FLSQFPSGKVVITLF (Residue 97-111 RhD; listed as Homo sapiens) [peptide 13]
proliferative T-cell response to RhD peptides [2]: most commonly targeted
proportion of CD4+ IL-10+ T-cells [3]: 6.5%
RhD-specific proliferation by splenocytes after prior tolerisation [4, 6]: reduction in the RhD-specific proliferation

QDLTVMAAIGLGFLT (Residue 52-66 RhD; listed as Homo sapiens) [peptide 6]
proliferative T-cell response to RhD peptides [2]: most commonly targeted
IL-10 production by PBMC ([5]; FIG. 3 and FIG. 10): commonly induce the production of IL-10; also recorded: induce IL-10 production in the absence of a proliferative response or the production of IFN-γ or IL-4
RhD-specific proliferation by splenocytes after prior tolerisation [4, 6]: reduction in the RhD-specific proliferation
RhD-specific proliferation by splenocytes after prior tolerisation ([4]; peptide intranasal 14 days before RhD immunisation, listed as p6): reduced T-cell response to RhD protein
serum anti-human RBC antibody, rr red blood cells ([4]; peptide intranasal before RhD immunisation): reduction of anti-human RBC antibody

SIRLATMSALSVLIS (Residue 112-126 RhD; listed as Homo sapiens) [peptide 16]
proliferative T-cell response to RhD peptides [2]: most commonly targeted
TGF-β1 production by PBMC ([5]; FIG. 3 and FIG. 11): commonly induce the production of TGF-β1
IL-10 production by draining lymph node cells [4, 7]: increase
TGF-β1 production by draining lymph node cells [4, 7]: increase

TMSALSVLISVDAVL (Residue 117-131 RhD; listed as Homo sapiens) [peptide 17]
proliferative T-cell response to RhD peptides [2]: most commonly targeted; also recorded: induces significant PBMC proliferation
percentage of donors in whom a proliferative response was elicited ([2]; SI>3 with CPM>1000 positive, FIG. 6): 70%
proportion of CD4+ IL-10+ T-cells [3]: 6.2%
proportion of CD4+ IFN-γ+ T-cells [3]: 20.3%
RhD-specific proliferation by splenocytes after prior tolerisation [4, 6]: reduction in the RhD-specific proliferation

VGAGNGMIGFQVLLS (Residue 352-366 RhD; listed as Homo sapiens) [compound 60]
RhD-specific proliferation by splenocytes after prior tolerisation [4, 8]: reduced T-cell response to RhD protein
serum anti-human RBC antibody, rr red blood cells [4, 8]: no change
CD3+ CD4+ population of T-helper cells [1]: expansion of a CD3+ CD4+population of T-helper cells
CD4+ T-helper cells expressing intracellular IFN-γ [1]: expansion of CD4+ T-helper cells that express intracellular IFN-γ
